The record followed here is patent US12318393B2, “Modulators of orphan nuclear receptors for NASH and other metabolic disorders” (Emory University, priority 2018, dated 2025).

Data set [1] can be described thus: Cellular toxicity assay in human PBM cells. The class given is cell-based. The settings on record: read-out: Cytotoxicity (IC50, μM) PBM. The procedure: The toxicity of the compounds was assessed in human PBM, CEM (human lymphoblastoid), and Huh-7 cells, as described previously (see Schinazi R. F., Sommadossi J.-P., Saalmann V., Cannon D. L., Xie M.-Y., Hart G. C., Smith G. A. & Hahn E. F. Antimicrob. Agents Chemother. 1990, 34, 1061-67). Cycloheximide was included as positive cytotoxic control, and untreated cells exposed to solvent were included as negative controls. The cytotoxicity IC50 was obtained from the concentration-response curve using the median effective method described previously (see Chou T.-C. & Talalay P. Adv. Enzyme Regul. 1984, 22, 27-55; Belen'kii M. S. & Schinazi R. F. Antiviral Res. 1994, 25, 1-11).

The subject of data set [2] is high-fat-fed C57BL/6 mice. Description: High-fat-diet C57BL/6 mice, Compound 1 7.5 mg/kg with antagomiR-control or antagomiR-122. The class given is in vivo. The protocol: C57BL/6 mice were fed a 50% high fat diet (HFD) for four weeks. The control cohort received three hydrodynamic tail vein injections of a 5 μg antagomiR-control and six i.p injections of saline over three weeks. A second cohort was hydrodynamic tail vein injected with 5 μg antagomiR-122 (the reverse complement that inhibits activity of miR-122) three times and i.p injections of saline six times over three weeks. A third cohort was injected i.p. with Compound 1 (7.5 mg/kg) twice a week plus antagomiR-control once a week over the course of 3 weeks. The final cohort was injected i.p. with Compound 1 (7.5 mg/kg) twice a week plus antagomiR-122 injections once a week over the course of 3 weeks.
High Fat diet fed mice. C57BL/6 male mice were fed for 8 weeks a 50% high fat diet (Envigo, DIETTD150235). All mice were kept in a pathogen-free facility, under a 12 h light/dark cycle. Research on mice was approved by the Hebrew University Institutional Animal Care and Ethics Committee.
(§1) Compound 1 and AntagomiR injections to mice. C57BL/6 male mice, 7-8 weeks old, or Sgp130FC, 9-month-old male mice, were injected i.p. with 7.5 mg/kg Compound 1 dissolved in saline and 3% DMSO. Saline was injected as control. Mice were hydrodynamic tail vain injected with antagomiR-122 or antagomiR-control (negative control) (5 μg/mouse in 1.5 ml saline). Mice were sacrificed according to the legend of the figure describing the experimental results and the livers, white adipose and skeletal muscle tissues were frozen in liquid nitrogen or in OCT embedded frozen blocks, for further RNA and histologic analysis. AntagomiRs were obtained from Sigma Aldrich, see Table 3.
(§2) Triglycerides and β-hydroxybutyrate quantification. To determine the liver and muscle lipid content, muscle and liver tissues (40-80 mg) were homogenized in 0.5 ml of chloroform: Tris solution (v/v, 1:1), the homogenate was transferred to 1 ml of chloroform: methanol solution (v/v, 2:1) centrifuged at 3000 rpm for 10 min. The organic phase was mixed with 5% Triton X100 in chloroform, dried and re-dissolved in water. After lipid extraction, TG concentration in samples was measured with Triglyceride Quantification Kit (BioVision), according to the manufactures instructions. β-hydroxybutyrate was determined utilizing commercial colorimetric kits (BioVision) directly from plasma samples.
In an effort to determine whether the mechanism of action of miR-122 and Compound 1 are aligned at the same pathway, an experiment was designed in which both molecules, together and each separately, were administered. In this study, mice were fed with a 50% HFD and therapy was initiated 4 weeks after the animals were already on a diet, to establish NASH prior to treatment. Therapies (antagomiRs given once a week, due to a prolonged half time, and RS twice weekly, due to a plasma t/2 of 2.7 hrs) were initiated after 4 weeks and given for 3 weeks. The mice were weighed from week 3 and therapies initiated a week later. […] The liver was further analyzed to assess lipotoxicity. […] A surrogate marker for energy expenditure, β-hydroxybutyrate, was also measured. A reduction in energy expenditure is associated with reduced miR-122, and energy expenditure increased upon treating with Compound 1.
Male C57BL/6J mice, 7 to 8 weeks old, were housed randomly in standard cages and were fed a HFD, or atherogenic diet (consisting 1% Chol and 0.5% cholic acid, see also Table 3). All mice had free access to water during the experimental period. During the feeding period body weight was monitored every 3 days. In the HFD experiment, after 4 or 6 weeks, the resultant obese mice were treated with antagomiR-122 ([…] once a week for 3 weeks), or i.p. injected with Compound 1 (RORα agonist, 7.5 mg/kg twice a week for 3 weeks; or 15 mg/kg 3 times a week for 3 weeks). The obese control (HFD) group was administered only saline with DMSO and antagomiR-control. […]

For data set [3], the system named is Sgp130FC mice. Description: Liver triglycerides and lipid accumulation in Sgp130FC mice (NASH model). It counts as in vivo. The procedure: Sgp130FC mice specifically blocks IL-6 trans-signaling without affecting classic IL-6 signaling. […] Nine-month-old Sgp130FC mice were injected i.p. with Compound 1 (7.5 mg/kg) or vehicle control twice a week for four weeks (total of 8 injections). The mice were sacrificed after 4 weeks, triglyceride levels were measured from liver and skeletal muscle and hepatic lipid accumulation was visualized using H&E staining.
as §1, §2

[4] abbreviates: 7.5 mg/kg i.p. twice/week, four weeks.

For the compound `O=C1Nc2cc(C(=O)N3CCC(Cc4ccccc4)CC3)ccc2Nc2ccccc21` [Compound 1], the IC50 (in general, the point on the concentration scale where inhibition reaches its midpoint) in data set [1] worked out at 92.4 µM. Also, the “body weight, co-administration with antagomir-122” value in data set [2] (7.5 mg/kg i.p. twice a week plus antagomiR-122 once a week, 3 weeks) is “did not decrease”. Moreover, in data set [2] (7.5 mg/kg i.p. twice a week plus antagomiR-control, 3 weeks), the “body weight at the end of the experiment compared to the control group” value was “statistically lower”. Also, the “secretion of miR-122 (plasma)” value in data set [2] (7.5 mg/kg i.p. twice a week, 3 weeks) is listed as “enhanced”. Moreover, in data set [2] (50% HFD, treatment for 3 weeks), the “TG content in the muscle” value was “decreased”; the “energy expenditure (surrogate marker β-hydroxybutyrate)” value is “increased”; the “hepatic lipid droplets and TG content” value is recorded as “reduced”. In addition, the “hepatic lipid accumulation and droplet formation (H&E staining)” value in data set [3] (7.5 mg/kg i.p. twice a week for four weeks) is reported as “markedly reduces”. The “reduction of liver triglyceride levels” value in data set [3] (7.5 mg/kg i.p. twice a week for four weeks, vs saline) is reported as “approximately 3 fold”. For the same compound, in data set [3] (setting [4]), the “MicroRNA-18 plasma and liver levels (negative control)” value is “not affected”; the “liver and muscle triglyceride levels” value is listed as “reduces”; the “miR-122 expression (plasma, liver)” value is “increases”.
